ChEMBL document CHEMBL1123407, “Synthesis of a new chemically and metabolically stable prostacyclin analogue with high and long-lasting oral activity” (J Med Chem, 1986)

Assays:
Homo sapiens [1] = organism: Homo sapiens; experiment: In vitro inhibition of collagen (0.66 ug/mL)-induced platelet aggregation in human PRP; type: functional
Rattus norvegicus = organism: Rattus norvegicus; experiment: In vitro inhibition of ADP (1.25 x 10E-6 M)-induced platelet aggregation in rat PRP (wistar); type: functional
Homo sapiens [2] = organism: Homo sapiens; experiment: In vitro inhibition of ADP (0.5 x 10E-6 M)-induced platelet aggregation in human PRP
Homo sapiens [3] = organism: Homo sapiens; experiment: In vitro inhibition of thrombin (0.1 IU/mL)-induced platelet aggregation in human PRP

## CCC#CC[C@H](C)[C@H](O)C#CC1[C@H]2C/C(=C/COCC(=O)O)CC2C[C@H]1O (stereo not given in full)
Homo sapiens [1]
  IC50: 0.2 nM
Rattus norvegicus
  IC50: 3.2 nM
Homo sapiens [2]
  IC50: 0.64 nM
Homo sapiens [3]
  IC50: 0.13 nM

## CCCCC[C@H](O)/C=C/[C@@H]1[C@H]2C/C(=C/CCCC(=O)O)O[C@H]2C[C@H]1O [EPOPROSTENOL]
Rattus norvegicus
  IC50: 2.6 nM
Homo sapiens [2]
  IC50: 0.66 nM

## CC#CCC(C)[C@H](O)/C=C/[C@@H]1[C@H]2C/C(=C/CCCC(=O)O)C[C@H]2C[C@H]1O (stereo not given in full) [ILOPROST]
Homo sapiens [1]
  IC50: 0.39 nM
Rattus norvegicus
  IC50: 11.4 nM
Homo sapiens [2]
  IC50: 0.82 nM
Homo sapiens [3]
  IC50: 0.39 nM
